According to patent US20200375987A1, “METALLO-BETA-LACTAMASE INHIBITORS AND METHODS OF USE THEREOF” (priority 2018, published 2020):

Key:
[1] = system: P. aeruginosa MB9798 (efflux WT, IMP-1); assay: Efflux: concentration of MBL inhibitor restoring susceptibility to imipenem (MITC95), efflux+ strain; assay type: cell-based, Pseudomonas aeruginosa; conditions: imipenem at 2 μg/mL in the presence of a class A, C, D serine β-lactamase inhibitor closely related to relebactam
Source text: (§1) In order to assess the contribution of efflux to lack of whole cell inhibition of metallo-beta-lactamase inhibitors of formula I, tool strains were constructed. The strain background is Pseudomonas aeruginosa PAO1. A wild-type (MB5919) and an isogenic strain in which multiple efflux pumps have been disrupted genetically were used. The MBL IMP-1, obtained from a clinical isolate was introduced into the strain pair by the following process:
(§2) Plasmid DNA (encoding IMP-1) was extracted from CL 5673 (IMP-1, P. aeruginosa clinical strain) by standard techniques. The plasmid DNA was transformed into parental MB5919 (oprD+, efflux+, inducible AmpC) and MB5890 (oprD+, efflux−, inducible AmpC) isogenic strains by electroporation. These transformed strains were plated onto cation-adjusted Muller-Hinton agar plates containing ceftazidime at 32 μg/mL (MB5919) and 16 μg/mL (MB5890) to select for those cells in which the IMP-1-expressing plasmid was introduced successfully, resulting in resistance to ceftazidime. Agarose-gel electrophoresis of PCR product for IMP-1 from the successful transformants was used to compare to control and to the original strain from which the plasmid was obtained, confirming transfer of the IMP-1 gene (data not shown).
(§3) The strain set was then used as a pair to determine the effect of metallo-β-lactamase inhibitors of Formula Ion the MIC of imipenem and/or ceftazidime. A fixed concentration of antibiotic is included in standard microbroth MIC tests, usually at the CLSI breakpoint concentration. A fixed amount of a class A/C beta-lactamase inhibitor is also included to inhibit the resident Pseudomonas AmpC enzyme. A serial titration of the metallo-β-lactamase inhibitor was included and the concentration of metallo-β-lactamase inhibitor which restores susceptibility of the strain to the included antibiotic was recorded. That concentration of metallo-β-lactamase inhibitor was then compared between the two strains to determine the fold difference between the efflux+(MB9798) and efflux−(MB9799) strains, which indicates n the extent to which the MBLi is subject to efflux.

[2] = target: VIM-1 (Pseudomonas aeruginosa, UniProt A0A0F7KYQ8); assay: Enzyme activity: determination of IC50, fluorescence assay with CCF2-FA substrate (VIM-1); assay type: biochemical; conditions: 30 pM enzyme, 1.25 μM CCF2-FA, 2 hours at 25° C.; read-out: VIM1 IC50
Description: (§4) The Class B enzyme activities were measured in the presence of the test inhibitor in a fluorescence assay against a commercially available substrate consisting of a cephalosporin core linking 7-hydroxycoumarin to fluorescein (CCF2-FA). The enzyme (NDM-1, IMP-1 or VIM-1) and the substrate were diluted in 100 mM KH2PO4 buffer (pH 7) containing 0.005% Tween-20 and 10 μM ZnSO4. In the assay, the final concentration of enzyme was 1 pM, 2 pM and 30 pM for NDM-1, IMP-1 and VIM-1, respectively, and the final concentration of CCF2-FA was 1.25 μM. The test inhibitor was dissolved in dimethylsulfoxide and diluted 1:50 in the assay, resulting in a final concentration range of 20 μM to 0.00063 μM. In a 384-well microplate, the test inhibitor was incubated with the metallo-β-lactamase enzyme and the substrate for 2 hours at 25° C. Fluorescence at 460 nm following excitation at 405 nm was measured. The IC50 value was determined from semi-logarithmic plots of enzyme inhibition versus inhibitor concentration, with a curve generated using a 4-parameter fit.

[3] = system: P. aeruginosa MB9799 (efflux mutant, IMP-1); assay: Efflux: concentration of MBL inhibitor restoring susceptibility to imipenem (MITC95), efflux− strain; assay type: cell-based, Pseudomonas aeruginosa; conditions: imipenem at 2 μg/mL in the presence of a class A, C, D serine β-lactamase inhibitor closely related to relebactam
Source text: as §1, §2, §3

[4] = system: Klebsiella pneumoniae expressing VIM-1 (IHMA599644); assay: Antibiotic potentiation activity: synergistic concentration (MITC95) with imipenem; assay type: cell-based; conditions: imipenem 1 μg/mL; lowest concentration inhibiting 95% of growth; 35° C., 22-24 hours
Description: (§5) The bacterial strains tested included the clinical strains Escherichia coli expressing NDM-1 (CLB30005, CLB30016), Serratia marcescens expressing IMP-1 (CL5741), and Klebsiella pneumoniae expressing VIM-1 (IHMA599644). Inhibitor activity was measured in the presence and absence of imipenem in a 384-well microplate.
(§6) The clinical strains CLB30016, CL5741 and IHMA599644 were grown on trypticase soy agar containing 5% sheep's blood. The bacteria on agar plates were incubated at 35° C. with humidity overnight. The following day, individual colonies from each clinical strain were picked and resuspended in 5 mL saline to attain an OD600 of 0.14, 0.11, 0.15 and 0.13, for CLB30016, CL5741 and IHMA599644, respectively. These were further diluted 1:100 into 1.1× CAMHB and used to inoculate the test wells as described below.
(§7) Imipenem in 10 mM 3-(N-morpholino)propanesulfonic acid (MOPS, pH 7) was stored in single use aliquots at −80° C. […] On the day of the assay, 4 μl of antibiotic was added to 45 μl of bacteria followed by 1 μl of test compound and mixed by pipetting and with an orbital shaker. The concentration of antibiotic used in the assay was 1 μg/mL. Microplates were covered and incubated at 35° C. for 22 hours to 24 hours. At the end of the incubation, absorbance was determined using a spectrophotometer. The synergistic concentration of MBLI was determined by identifying the lowest concentration of test compound in the presence of a given concentration of antibiotic that was required to inhibit 95% of the growth of the bacteria. The results for Examples 1-209 are reported in Table 1, expressed as the concentration of compound that potentiated the action of antibiotic (imipenem) affecting 95% inhibition of bacterial growth (MITC95).

[5] = system: Escherichia coli expressing NDM-1 (CLB30016); assay: as above; assay type: cell-based; conditions: imipenem 1 μg/mL; lowest concentration inhibiting 95% of growth; 35° C., 22-24 hours
Description: as §5, §6, §7

[6] = system: Serratia marcescens expressing IMP-1 (CL5741); assay: as above; assay type: cell-based; conditions: imipenem 1 μg/mL; lowest concentration inhibiting 95% of growth; 35° C., 22-24 hours
Description: as §5, §6, §7

[7] = target: VIM-2 (Escherichia coli, UniProt Q5U7L7); assay: Enzyme activity: determination of IC50 (VIM-2); assay type: biochemical; conditions: read-out: VIM2 IC50
[8] = target: IMP-1 (Serratia marcescens, UniProt P52699); assay: Enzyme activity: determination of IC50, fluorescence assay with CCF2-FA substrate (IMP-1); assay type: biochemical; conditions: 2 pM enzyme, 1.25 μM CCF2-FA, 2 hours at 25° C.; read-out: IMP1 IC50
Sequence of IMP-1 (P52699 19-246, looked up, species assumed): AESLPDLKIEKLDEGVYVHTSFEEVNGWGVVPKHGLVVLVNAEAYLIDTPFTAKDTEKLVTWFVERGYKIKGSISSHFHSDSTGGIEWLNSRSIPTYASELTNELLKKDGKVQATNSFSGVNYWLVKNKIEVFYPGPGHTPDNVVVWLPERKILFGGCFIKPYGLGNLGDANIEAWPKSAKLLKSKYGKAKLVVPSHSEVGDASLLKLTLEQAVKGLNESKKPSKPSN
Description: as §4

[9] = target: NDM-1 (Klebsiella pneumoniae, UniProt C7C422); assay: Enzyme activity: determination of IC50, fluorescence assay with CCF2-FA substrate (NDM-1); assay type: biochemical; conditions: 1 pM enzyme, 1.25 μM CCF2-FA, 2 hours at 25° C.; read-out: NDM1 IC50
Sequence of NDM-1 (C7C422 29-270, looked up, species assumed): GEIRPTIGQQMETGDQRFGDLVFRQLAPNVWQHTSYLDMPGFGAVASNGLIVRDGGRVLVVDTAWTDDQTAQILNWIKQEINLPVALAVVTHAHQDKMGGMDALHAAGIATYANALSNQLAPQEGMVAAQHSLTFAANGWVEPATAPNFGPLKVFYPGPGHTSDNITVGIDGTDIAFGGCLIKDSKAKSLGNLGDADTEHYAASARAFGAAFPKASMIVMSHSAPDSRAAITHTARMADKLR
Description: as §4

Structure (SMILES)	MB9798 MITC95 P. aeruginosa Efflux WT [1] [µM]	IC50 [2] [nM]	MB9799 MITC95 P. aeruginosa Efflux Mutant [3] [µM]	IHMA599644 K.pneumoniae MITC95 uM VIM [4] [µM]	CLB30016 E.coli MITC95 NDM [5] [µM]	CL5741 S.marcescens MITC95 uM IMP [6] [µM]	IC50 [7] [nM]	IC50 [8] [nM]	IC50 [9] [nM]
NS(=O)(=O)c1c(S(=O)(=O)N[C@@H]2CCNC2)ccc(N2CCn3ncnc3C2)c1-c1nn[nH]n1 [Example 1, (R)-4-(5,6-dihydro-[1,2,4]triazolo[1,5-a]pyrazin-7(8H)-yl)-N′-(pyrrolidin-3-yl)-3-(2H-tetrazol-5-yl)benzene-1,2-disulfonamide]	6.25	0.29	1.56	6.25	3.13	1.56	0.99	4.03	1.57
NS(=O)(=O)c1c(S(=O)(=O)N[C@@H]2CCNC2)ccc(N2CCn3cncc3C2)c1-c1nn[nH]n1 [Example 2, (R)-4-(5,6-dihydroimidazo[1,5-a]pyrazin-7(8H)-yl)-N^1-(pyrrolidin-3-yl)-3-(2H-tetrazol-5-yl)benzene-1,2-disulfonamide]	3.13	0.16	0.78	1.56	0.20	0.78	0.68	2.01	0.3
NC[C@@H](O)CNS(=O)(=O)c1ccc(N2CCc3nc(N)[nH]c3C2)c(-c2nn[nH]n2)c1S(N)(=O)=O [Example 3, (R)—N^1-(3-amino-2-hydroxypropyl)-4-(2-amino-3,4,6,7-tetrahydro-5H-imidazo[4,5-c]pyridin-5-yl)-3-(2H-tetrazol-5-yl)benzene-1,2-disulfonamide]	6.25	22.6	1.56	6.25	0.78	3.13	72.8	5.72	2.23
NS(=O)(=O)c1c(S(=O)(=O)N[C@@H]2CCNC2)ccc(N2CCn3nc(C(F)(F)F)nc3C2)c1-c1nn[nH]n1 [Example 4, (R)—N^1-(pyrrolidin-3-yl)-3-(2H-tetrazol-5-yl)-4-(2-(trifluoromethyl)-5,6-dihydro-[1,2,4]triazolo[1,5-a]pyrazin-7(8H)-yl)benzene-1,2-disulfonamide]	25.00	0.35	3.13	6.25	3.13	6.25	0.48	2.18	2.25
CCOC(=O)c1cn2c(n1)N(c1ccc(S(=O)(=O)N[C@@H]3CCNC3)c(S(N)(=O)=O)c1-c1nn[nH]n1)CCC2 [Example 5, ethyl (R)-8-(4-(N-(pyrrolidin-3-yl)sulfamoyl)-3-sulfamoyl-2-(2H-tetrazol-5-yl)phenyl)-5,6,7,8-tetrahydroimidazo[1,2-a]pyrimidine-2-carboxylate]	6.25	0.12	3.13	12.50	12.50	6.25	0.55	0.96	0.04
NS(=O)(=O)c1c(S(=O)(=O)N[C@@H]2CCNC2)ccc(N2CCCn3cnnc32)c1-c1nn[nH]n1 [Example 6, (R)-4-(6,7-dihydro-[1,2,4]triazolo[4,3-a]pyrimidin-8(5H)-yl)-N^1-(pyrrolidin-3-yl)-3-(2H-tetrazol-5-yl)benzene-1,2-disulfonamide]	3.13	0.24	3.13	6.25	0.78	3.13	1.13	6.8	0.72
NS(=O)(=O)c1c(S(=O)(=O)N[C@@H]2CCNC2)ccc(N2CCCn3nccc32)c1-c1nn[nH]n1 [Example 7, (R)-4-(6,7-dihydropyrazolo[1,5-a]pyrimidin-4(5H)-yl)-N^1-(pyrrolidin-3-yl)-3-(2H-tetrazol-5-yl)benzene-1,2-disulfonamide]	3.13	0.13	1.56	6.25	6.25	3.13	0.66	2.81	0.14
